Test results from US20070048372A1, “Method for treating non-inflammatory osteoarthritic pain” (SRZ Properties, Inc., priority 2005, published 2007).
“Also recorded” adds a separate entry of the source.

Experiments:
[1] = test system: monosodium iodoacetate-induced tactile allodynia; assay: Monosodium iodoacetate-induced tactile allodynia (von Frey filaments); type: in vivo, rat (Wistar); details: 60 minutes before test
[2] = test system: monosodium iodoacetate-induced mechanical hyperalgesia; assay: Monosodium iodoacetate-induced mechanical hyperalgesia (Randall-Selitto paw pressure); type: in vivo, rat (Wistar); details: for paw pressure withdrawal threshold compared to iodoacetate/vehicle treated animals (mechanical hyperalgesia): day 3; for mechanical hyperalgesia (paw pressure withdrawal threshold): day 7
[3] = test system: rat formalin paw test (late phase); assay: Rat formalin paw test (late phase): number of flinches and licking time; type: in vivo, rat (Rj: Wistar (Han))
Method: Rats were given an intraplantar injection of 5% formalin (50 μl) into the posterior left paw. This treatment induces a recognizable flinching and licking response of the affected paw in control animals. The number of flinches was counted for 15 minutes, beginning 20 minutes after injection of formalin. The time spent licking the affected paw was also recorded.
Male Rj: Wistar (Han) rats, 10 per group, weighing 100-130 g at the beginning of the experiments were studied per group. The test was performed blind.
Lacosamide (20 mg/kg), gabapentin (50 and 100 mg/kg), combinations of lacosamide (20 mg/kg) with gabapentin (50 and 100 mg/kg), and vehicle were administered i.p. 10 minutes before injection of formalin.
Lacosamide (10 and 20 mg/kg), morphine (2 and 4 mg/kg), combinations of lacosamide (10 and 20 mg/kg) with morphine (2 and 4 mg/kg), and vehicle were administered i.p. 10 minutes before injection of formalin.
Lacosamide (10 mg/kg), duloxetine (8 mg/kg), a combination of lacosamide (10 mg/kg) with duloxetine (8 mg/kg), and vehicle were administered i.p. 10 minutes before injection of formalin.
Lacosamide (10 and 20 mg/kg), memantine (4 and 8 mg/kg), combinations of lacosamide (10 and 20 mg/kg) with memantine (4 and 8 mg/kg), and vehicle were administered i.p. 10 minutes before injection of formalin.
Lacosamide (10 and 20 mg/kg), naproxen (8 and 16 mg/kg), combinations of lacosamide (10 and 20 mg/kg) with […] (8 and 16 mg/kg), and vehicle were administered i.p. 10 minutes before injection of formalin. Morphine (8 mg/kg) was included as a comparative treatment.

[4] = test system: biceps muscle grip strength after TNF-induced muscle pain; assay: Biceps muscle grip strength after TNF-induced muscle pain; type: in vivo, rat (Sprague Dawley); details: 100 mg/kg i.p.
Method: (§1) Adult male Sprague Dawley rats with a body weight of 250 g to 300 g were used (supplier: Charles River, Sulzfeld, Germany). Animals were group-housed (3 animals per cage) and maintained in a room with controlled temperature (21-22° C.) and a reversed light-dark cycle (12 h/12 h) with food and water available ad libitum. All experiments were approved by the Bavarian State animal experimentation committee and carried out in accordance with its regulations.
(§2) Recombinant rat tumor necrosis factor alpha (herein referred to as TNF) was obtained from R&D Systems, Minneapolis, Minn., U.S.A. TNF was diluted in 0.9% NaCl and used in a concentration of 1 μg in 50 μl. Injections were performed in short halothane narcosis with a 30 g needle bilaterally into the gastrocnemius or into the biceps brachii muscle. All rats were used to the behavioral tests before injections and baseline values were recorded over three test days.
Grip strength of the forelimbs was tested with a digital grip force meter (DFIS series, Chatillon, Greensboro, NC, U.S.A.). The rat was positioned to grab the grid with the forelimbs and was gently pulled so that the grip strength could be recorded. Means of three trials were calculated. The effect of the TNF treatment was calculated for each animal separately and only animals with a significant TNF effect were included for further analysis.
Rats were injected with TNF into the biceps brachii muscle at 8 am. Six hours later, grip strength of the forelimbs was tested with a digital grip force meter. Test drug was administered, and grip strength was again tested after 30 to 60 minutes.
(§3) The rats, initially 10 per group, were treated with either 3, 10 or 30 mg/kg lacosamide, 2 mg/kg metamizol, 30 or 100 mg/kg pregabalin, 100 mg/kg gabapentin, or the NaCl vehicle, i.p. (intraperitoneally). Volume of i.p. injections was 0.5 ml. A pilot study was performed to confirm that i.m. (intramuscular) injection of 1 μg TNF into the gastrocnemius muscle was sufficient to induce pressure hyperalgesia.
(§4) Data are shown in graphs displaying means and standard errors of the means (SEM). Pre- and post-treatment data were compared using ANOVA (analysis of variance) and a Tukey post hoc test. Means of treatment groups were compared using a one-way ANOVA and Dunnett's post hoc test. Maximal possible effects (MPE) were calculated for all types of treatment.

[5] = test system: muscle pressure hyperalgesia induced by TNF; assay: TNF-induced muscle pressure hyperalgesia (Randall-Selitto, withdrawal threshold to muscle pressure); type: in vivo, rat (Sprague Dawley)
Method: as §1, §2
Mechanical withdrawal thresholds to muscle pressure were measured with an analgesimeter (Ugo Basile, Comerio, Italy). The rat was allowed to crawl into a sock which helps the rat to relax. The hind limbs were positioned such that an increasing pressure could be applied onto the gastrocnemius muscle (maximum 250 g). The pressure needed to elicit withdrawal was recorded. Means of 3 trials for each hind limb were calculated (interstimulus interval of >30 sec). Only animals with a significant TNF effect were included for further analysis.
Rats were injected with TNF into the gastrocnemius muscle at 2 pm. Eighteen hours later, rats were tested for pressure hyperalgesia pre- and post-administration of the test drug. Rats were tested for pressure hyperalgesia 30 to 60 minutes after drug administration.
as §3, §4

[6] = Example 4, 2 and 4 mg/kg i.p. alone, did not reach statistical significance
[7] = Example 3, 100 mg/kg i.p. alone

CN1CC[C@]23c4c5ccc(O)c4O[C@H]2[C@@H](O)C=C[C@H]3[C@H]1C5 [Morphine]
tactile allodynia of iodoacetate-treated rats (von Frey) ([1]; day 3, 3 mg/kg s.c.): improved tactile allodynia | tactile allodynia of iodoacetate-treated rats (von Frey) ([1]; day 7, 3 mg/kg s.c.): improved tactile allodynia | tactile allodynia of iodoacetate-treated rats (von Frey) ([1]; day 14, 3 mg/kg s.c.): not on day 14 | paw pressure withdrawal threshold compared to iodoacetate/vehicle treated animals (mechanical hyperalgesia) ([2]; 3 mg/kg s.c.): increase in paw pressure withdrawal threshold | mechanical hyperalgesia (paw pressure withdrawal threshold) ([2]; 3 mg/kg s.c.): reduced mechanical hyperalgesia | Licking time % change (a) compared with vehicle control ([3]; Example 4, 2 mg/kg i.p. alone): −1% (a) | Licking time (seconds) mean ± SEM ([3]; Example 4, 2 mg/kg i.p. alone): 289.3 ± 30.7 NS (a) seconds | No. of flinches % change (a) compared with vehicle control ([3]; Example 4, 2 mg/kg i.p. alone): −7% (a) | No. of flinches mean ± SEM ([3]; Example 4, 2 mg/kg i.p. alone): 139.5 ± 25.3 NS (a) | Licking time % change (a) compared with vehicle control ([3]; Example 4, 4 mg/kg i.p. alone): −20% (a) | Licking time (seconds) mean ± SEM ([3]; Example 4, 4 mg/kg i.p. alone): 234.9 ± 37.3 NS (a) seconds | No. of flinches % change (a) compared with vehicle control ([3]; Example 4, 4 mg/kg i.p. alone): −37% (a) | No. of flinches mean ± SEM ([3]; Example 4, 4 mg/kg i.p. alone): 94.3 ± 21.1 NS (a) | effect on the number of flinches as compared with vehicle controls [3, 6]: dose-dependently decreased | effect on the time spent licking as compared with vehicle controls [3, 6]: dose-dependently decreased | Licking time % change (a) compared with vehicle control ([3]; Example 7, 8 mg/kg i.p. alone): −100% (a) | Licking time (seconds) mean ± SEM ([3]; Example 7, 8 mg/kg i.p. alone): 0.0 ± 0.0 (a) seconds | No. of flinches % change (a) compared with vehicle control ([3]; Example 7, 8 mg/kg i.p. alone): −100% (a) | No. of flinches mean ± SEM ([3]; Example 7, 8 mg/kg i.p. alone): 0.2 ± 0.1 (a) | effect on flinching and the time spent licking as compared with vehicle controls ([3]; Example 7, 8 mg/kg i.p. alone): eliminated flinching and the time spent licking

CNCC[C@H](Oc1cccc2ccccc12)c1cccs1 [Duloxetine]
Licking time % change (a) compared with vehicle control ([3]; Example 5, 8 mg/kg i.p. alone): −26% (a) | Licking time (seconds) mean ± SEM ([3]; Example 5, 8 mg/kg i.p. alone): 195.5 ± 45.0 NS (a) seconds | No. of flinches % change (a) compared with vehicle control ([3]; Example 5, 8 mg/kg i.p. alone): −1% (a) | No. of flinches mean ± SEM ([3]; Example 5, 8 mg/kg i.p. alone): 149.6 ± 27.3 NS (a) | effects on the number of flinches and the time spent licking ([3]; Example 5, 8 mg/kg i.p. alone): had no clear effects

O=C(O)Cc1ccccc1Nc1c(Cl)cccc1Cl [diclofenac]
tactile allodynia of iodoacetate-treated rats (von Frey) ([1]; day 3, 30 mg/kg s.c.): had no effect | tactile allodynia of iodoacetate-treated rats (von Frey) ([1]; day 7, 30 mg/kg s.c.): had no effect | tactile allodynia of iodoacetate-treated rats (von Frey) ([1]; day 14, 30 mg/kg s.c.): had no effect | paw pressure withdrawal threshold compared to iodoacetate/vehicle treated animals (mechanical hyperalgesia) ([2]; 30 mg/kg s.c.): increase in paw pressure withdrawal threshold | mechanical hyperalgesia (paw pressure withdrawal threshold) ([2]; 30 mg/kg s.c.): reduced mechanical hyperalgesia

NCC1(CC(=O)O)CCCCC1 [Gabapentin]
MPE (maximal possible effect) on biceps muscle grip strength, compared with vehicle [4]: significantly different from vehicle | reversal of TNF-induced reduction of grip strength ([4]; 6 h after TNF i.m., 30 to 60 minutes after drug): significant reversal; also recorded: improved grip strength | MPE (maximal possible effect) on muscle pressure hyperalgesia, compared with vehicle ([5]; 100 mg/kg i.p.): significantly different from vehicle | reversal of muscular mechanical hyperalgesia (withdrawal threshold to muscle pressure) ([5]; 100 mg/kg i.p., 18 h after TNF i.m., 30 to 60 minutes after drug): significant reversal | full reversal of the muscle hyperalgesia ([5]; doses tested: pregabalin 30 and 100 mg/kg, gabapentin 100 mg/kg i.p.): Neither pregabalin nor gabapentin led to a full reversal | Licking time % change (a) compared with vehicle control ([3]; Example 3, 50 mg/kg i.p. alone): −28% (a) | Licking time (seconds) mean ± SEM ([3]; Example 3, 50 mg/kg i.p. alone): 161.0 ± 27.3 NS (a) seconds | No. of flinches % change (a) compared with vehicle control ([3]; Example 3, 50 mg/kg i.p. alone): −24% (a) | No. of flinches mean ± SEM ([3]; Example 3, 50 mg/kg i.p. alone): 97.4 ± 23.8 NS (a) | decrease of the number of flinches as compared with vehicle controls ([3]; Example 3, 50 mg/kg i.p. alone): 24% | decrease of the time spent licking as compared with vehicle controls ([3]; Example 3, 50 mg/kg i.p. alone): 28% | Licking time % change (a) compared with vehicle control [3, 7]: −60% (a) | Licking time (seconds) mean ± SEM [3, 7]: 90.0 ± 22.5 (a) seconds | No. of flinches % change (a) compared with vehicle control [3, 7]: −31% (a) | No. of flinches mean ± SEM [3, 7]: 88.1 ± 19.4 NS (a) | decrease of the number of flinches as compared with vehicle controls [3, 7]: 31% | decrease of the time spent licking as compared with vehicle controls [3, 7]: 60%
